Measurements published in US10781211B2, “Spirocycle compounds and methods of making and using same” (Lundbeck La Jolla Research Center, Inc., priority 2016, dated 2020).

What was measured:
Type in all cases: in vivo
Conditions in all cases: 5 mg/kg oral gavage
[1] = target: MAGL (Mus musculus (Mouse), UniProt O35678); experiment: Mouse brain proteomes from inhibitor treated mice (oral gavage, sacrifice 4 h after administration, ABPP analysis)
In short: (§1)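 Values give % inhibition in brain after a 5 mg/kg oral gavage dose to wild-type C57Bl/6J mice, with vehicle e.g. PEG400/Ethanol/PBS (7/2/1). Animals were killed 4 h post-dose and brain proteome activity was read by ABPP.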

[2] = target: FAAH (Mus musculus (Mouse), UniProt O08914); experiment: Mouse brain proteomes from inhibitor treated mice (oral gavage, sacrifice 4 h after administration, ABPP analysis), FAAH
In short: as §1

[3] = target: ABHD6 (Mus musculus (Mouse), UniProt Q8R2Y0); experiment: Mouse brain proteomes from inhibitor treated mice (oral gavage, sacrifice 4 h after administration, ABPP analysis), ABHD6
In short: as §1

Chain of FAAH (O08914 whole entry): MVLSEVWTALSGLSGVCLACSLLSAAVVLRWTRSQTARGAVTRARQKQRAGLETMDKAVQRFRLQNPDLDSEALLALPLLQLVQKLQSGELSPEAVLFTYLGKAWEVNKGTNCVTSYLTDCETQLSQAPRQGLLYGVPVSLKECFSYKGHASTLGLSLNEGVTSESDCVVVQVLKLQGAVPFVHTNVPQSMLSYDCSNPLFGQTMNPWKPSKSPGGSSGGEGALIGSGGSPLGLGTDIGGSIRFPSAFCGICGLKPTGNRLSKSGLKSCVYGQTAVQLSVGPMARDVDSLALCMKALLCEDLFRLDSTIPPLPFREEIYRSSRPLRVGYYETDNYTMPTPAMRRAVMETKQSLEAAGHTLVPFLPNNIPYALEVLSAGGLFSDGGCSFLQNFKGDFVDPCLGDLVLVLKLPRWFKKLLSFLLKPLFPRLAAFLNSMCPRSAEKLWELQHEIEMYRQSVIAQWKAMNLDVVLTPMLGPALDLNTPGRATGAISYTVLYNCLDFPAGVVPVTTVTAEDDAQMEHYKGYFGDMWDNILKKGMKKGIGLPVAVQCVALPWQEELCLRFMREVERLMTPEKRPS
Chain of ABHD6 (Q8R2Y0 whole entry): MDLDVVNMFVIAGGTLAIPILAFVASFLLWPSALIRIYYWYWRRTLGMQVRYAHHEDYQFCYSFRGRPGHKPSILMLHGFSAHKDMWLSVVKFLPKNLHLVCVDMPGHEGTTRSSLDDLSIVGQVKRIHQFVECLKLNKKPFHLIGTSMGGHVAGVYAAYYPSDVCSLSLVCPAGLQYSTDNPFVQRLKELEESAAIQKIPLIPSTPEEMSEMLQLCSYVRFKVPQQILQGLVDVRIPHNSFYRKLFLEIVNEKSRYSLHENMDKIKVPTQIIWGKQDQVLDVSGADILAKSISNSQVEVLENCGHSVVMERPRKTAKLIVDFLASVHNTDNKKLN
Chain of MAGL (O35678 whole entry): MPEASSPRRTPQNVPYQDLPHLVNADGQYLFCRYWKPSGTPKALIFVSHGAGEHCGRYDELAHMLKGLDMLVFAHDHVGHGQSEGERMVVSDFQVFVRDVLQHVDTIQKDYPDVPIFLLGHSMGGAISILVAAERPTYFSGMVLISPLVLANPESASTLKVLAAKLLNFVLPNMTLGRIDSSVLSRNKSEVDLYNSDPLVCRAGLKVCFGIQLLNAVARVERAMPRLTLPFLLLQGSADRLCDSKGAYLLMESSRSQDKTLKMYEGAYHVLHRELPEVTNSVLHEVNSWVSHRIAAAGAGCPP

| Compound | MAGL % Inh 5 mg/kg (mouse) [1] | FAAH % Inh 5 mg/kg (mouse) [2] | ABHD6 % Inh 5 mg/kg (mouse) [3] |
| --- | --- | --- | --- |
| O=C(O)C1CCN(c2cc(C(F)(F)F)ccc2CN2CCCC23CCN(C(=O)OC(C(F)(F)F)C(F)(F)F)CC3)CC1 [Example 121, 1-(2-((8-(((1,1,1,3,3,3-Hexafluoropropan-2-yl)oxy)carbonyl)-1,8-diazaspiro[4.5]decan-1-yl)methyl)-5-(trifluoromethyl)phenyl)piperidine-4-carboxylic acid] | ### (### is ≥ 75%) | # (# is < 25%) | # (# is < 25%) |
| CN(C)C(=O)C1CCN(c2cc(C(F)(F)F)ccc2CN2CCCC23CCN(C(=O)OC(C(F)(F)F)C(F)(F)F)CC3)CC1 [Example 16, 1,1,1,3,3,3-Hexafluoropropan-2-yl 1-(2-(4-(dimethylcarbamoyl)piperidin-1-yl)-4-(trifluoromethyl)benzyl)-1,8-diazaspiro[4.5]decane-8-carboxylate] | # (# is < 25%) | # (# is < 25%) | # (# is < 25%) |
| O=C(O)C1CCN(C(=O)c2cc(C(F)(F)F)ccc2CN2CCCC23CCN(C(=O)OC(C(F)(F)F)C(F)(F)F)CC3)CC1 [Example 281] | # (# is < 25%) | # (# is < 25%) | # (# is < 25%) |
| O=C(O)C1CCN(c2cc(S(F)(F)(F)(F)F)ccc2CN2CCCC23CCN(C(=O)OC(C(F)(F)F)C(F)(F)F)CC3)CC1 [Example 240] | ### (### is ≥ 75%) | # (# is < 25%) | # (# is < 25%) |
| O=C(O)C1CCN(Cc2cc(Cl)cc(CN3CCCC34CCN(C(=O)OC(C(F)(F)F)C(F)(F)F)CC4)c2)C1 (stereo not drawn) [Example 272] | ### (### is ≥ 75%) | # (# is < 25%) | # (# is < 25%) |
| O=C(OC(C(F)(F)F)C(F)(F)F)N1CCC2(CCCN2Cc2cc(N3CCS(=O)(=O)CC3)cc(C(F)(F)F)c2)CC1 [Example 42, 1,1,1,3,3,3-Hexafluoropropan-2-yl 1-(3-(1,1-dioxidothiomorpholino)-5-(trifluoromethyl)benzyl)-1,8-diazaspiro[4.5]decane-8-carboxylate] | ### (### is ≥ 75%) | # (# is < 25%) | # (# is < 25%) |
| O=C(OC(C(F)(F)F)C(F)(F)F)N1CCC2(CCCN2Cc2ccc(Cl)cc2N2CCCC2)CC1 [Example 76, 1,1,1,3,3,3-Hexafluoropropan-2-yl 1-(4-chloro-2-(pyrrolidin-1-yl)benzyl)-1,8-diazaspiro[4.5]decane-8-carboxylate] | ### (### is ≥ 75%) | # (# is < 25%) | # (# is < 25%) |
| O=C(OC(C(F)(F)F)C(F)(F)F)N1CCC2(CCCN2Cc2ccc(N3CCCC3)c(Cl)c2)CC1 [Example 128, 1,1,1,3,3,3-Hexafluoropropan-2-yl 1-(3-chloro-4-(pyrrolidin-1-yl)benzyl)-1,8-diazaspiro[4.5]decane-8-carboxylate] | ### (### is ≥ 75%) | # (# is < 25%) | # (# is < 25%) |
| Cc1cc(CN2CCCC23CCN(C(=O)OC(C(F)(F)F)C(F)(F)F)CC3)ccc1Cl [Example 124, 1,1,1,3,3,3-Hexafluoropropan-2-yl 1-(4-chloro-3-methylbenzyl)-1,8-diazaspiro[4.5]decane-8-carboxylate] | ### (### is ≥ 75%) | # (# is < 25%) | # (# is < 25%) |
| O=C(OC(C(F)(F)F)C(F)(F)F)N1CCC2(CCCN2Cc2ccc(C(F)(F)F)cc2N2CCC(F)CC2)CC1 [Example 91, 1,1,1,3,3,3-Hexafluoropropan-2-yl 1-(2-(4-fluoropiperidin-1-yl)-4-(trifluoromethyl)benzyl)-1,8-diazaspiro[4.5]decane-8-carboxylate] | ### (### is ≥ 75%) | # (# is < 25%) | # (# is < 25%) |
| O=C(OC(C(F)(F)F)C(F)(F)F)N1CCC2(CCCN2Cc2ccc(C(F)(F)F)cc2N2CCC2)CC1 [Example 96, 1,1,1,3,3,3-Hexafluoropropan-2-yl 1-(2-(azetidin-1-yl)-4-(trifluoromethyl)benzyl)-1,8-diazaspiro[4.5]decane-8-carboxylate] | ### (### is ≥ 75%) | # (# is < 25%) | # (# is < 25%) |
| O=C(OC(C(F)(F)F)C(F)(F)F)N1CCC2(CCCN2Cc2cc(N3CCC3)cc(C(F)(F)F)c2)CC1 [Example 47, 1,1,1,3,3,3-Hexafluoropropan-2-yl 1-(3-(azetidin-1-yl)-5-(trifluoromethyl)benzyl)-1,8-diazaspiro[4.5]decane-8-carboxylate] | ### (### is ≥ 75%) | # (# is < 25%) | # (# is < 25%) |
| CCOc1ccc(CN2CCCC23CCN(C(=O)OC(C(F)(F)F)C(F)(F)F)CC3)cc1 [Example 4, 1,1,1,3,3,3-Hexafluoropropan-2-yl 1-(4-ethoxybenzyl)-1,8-diazaspiro[4.5]decane-8-carboxylate] | ### (### is ≥ 75%) | # (# is < 25%) | # (# is < 25%) |
| O=C(O)[C@H]1CCCN(c2cc(C(F)(F)F)ccc2CN2CCCC23CCN(C(=O)OC(C(F)(F)F)C(F)(F)F)CC3)C1 [Example 217] | ### (### is ≥ 75%) | # (# is < 25%) | # (# is < 25%) |
| O=C(OC(C(F)(F)F)C(F)(F)F)N1CCC2(CCCN2Cc2cc(N3CCOCC3)cc(C(F)(F)F)c2)CC1 [Example 35, 1,1,1,3,3,3-Hexafluoropropan-2-yl 1-(3-morpholino-5-(trifluoromethyl)benzyl)-1,8-diazaspiro[4.5]decane-8-carboxylate] | ### (### is ≥ 75%) | # (# is < 25%) | # (# is < 25%) |
| CN1CCC(Oc2cc(CN3CCCC34CCN(C(=O)OC(C(F)(F)F)C(F)(F)F)CC4)cc(C(F)(F)F)c2)CC1 [Example 166, 1,1,1,3,3,3-Hexafluoropropan-2-yl 1-(3-(1-methylpiperidin-4-yloxy)-5-(trifluoromethyl)benzyl)-1,8-diazaspiro[4.5]decane-8-carboxylate] | # (# is < 25%) | # (# is < 25%) | # (# is < 25%) |
| CC1(C(=O)O)CCCN(c2cc(CN3CCCC34CCN(C(=O)OC(C(F)(F)F)C(F)(F)F)CC4)cc(C(F)(F)F)c2)C1 (stereo not drawn) [Example 221] | ### (### is ≥ 75%) | # (# is < 25%) | # (# is < 25%) |
| Cc1ccc(CN2CCCC23CCN(C(=O)OC(C(F)(F)F)C(F)(F)F)CC3)cc1Cl [Example 125, 1,1,1,3,3,3-Hexafluoropropan-2-yl 1-(3-chloro-4-methylbenzyl)-1,8-diazaspiro[4.5]decane-8-carboxylate] | ### (### is ≥ 75%) | # (# is < 25%) | # (# is < 25%) |
| O=C(OC(C(F)(F)F)C(F)(F)F)N1CCC2(CCCN2Cc2ccc(N3CCOCC3)c(C(F)(F)F)c2)CC1 [Example 129, 1,1,1,3,3,3-Hexafluoropropan-2-yl 1-(4-morpholino-3-(trifluoromethyl)benzyl)-1,8-diazaspiro[4.5]decane-8-carboxylate] | ### (### is ≥ 75%) | # (# is < 25%) | # (# is < 25%) |
| O=C(OC(C(F)(F)F)C(F)(F)F)N1CCC2(CCN(Cc3ccc(Cl)cc3N3CCCCC3)C2)CC1 [Example 24, 1,1,1,3,3,3-Hexafluoropropan-2-yl 2-(4-chloro-2-(piperidin-1-yl)benzyl)-2,8-diazaspiro[4.5]decane-8-carboxylate] | ### (### is ≥ 75%) | # (# is < 25%) | # (# is < 25%) |
| O=C(OC(C(F)(F)F)C(F)(F)F)N1CCC2(CCCN2Cc2ccc(Cl)cc2OCCF)CC1 [Example 30, 1,1,1,3,3,3-Hexafluoropropan-2-yl 1-(4-chloro-2-(2-fluoroethoxy)benzyl)-1,8-diazaspiro[4.5]decane-8-carboxylate] | ### (### is ≥ 75%) | # (# is < 25%) | # (# is < 25%) |
| O=C(OC(C(F)(F)F)C(F)(F)F)N1CCC2(CCCN2Cc2ccc(C(F)(F)F)cc2N2CC3COCC3C2)CC1 (stereo not drawn) [Example 97, 1,1,1,3,3,3-Hexafluoropropan-2-yl 1-(2-(tetrahydro-1H-furo[3,4-c]pyrrol-5(3H)-yl)-4-(trifluoromethyl)benzyl)-1,8-diazaspiro[4.5]decane-8-carboxylate] | ### (### is ≥ 75%) | # (# is < 25%) | # (# is < 25%) |
